Consider ten compounds from ChEMBL document CHEMBL1201862, “PubChem BioAssay data set” (2004).

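Where inhibition never reached the appropriate level, the endpoint shown equals the highest concentration tested. Otherwise, values were interpolated linearly from a five-concentration, 48-hour dose response in 96-well plates. GI50: concentration for 50% inhibition of growth.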 The source made the active and inactive calls. No stated cut-off is given here; in the data, active = GI50 up to about 1.1 µM and inactive = higher.

Test systems include SR; MOLT-4; ACHN; CCRF-CEM; HOP-92; K562; LXFL 529; SNB-19; SF-268; HT-29; A549; M14; SK-MEL-5; EKVX; OVCAR-3.
What all share (assay): NCI anticancer screen, dose series, 48 h

`CC(=O)N1c2ccccc2C2=CC3C4C(=O)N(c5ccccc5)C(=O)C4C21C1C(=O)N(c2ccccc2)C(=O)C31` (stereo not given): the GI50 in the assay with SR was 32.5 µM (inactive); with MOLT-4, 30.8 µM (inactive); in the assay with ACHN, 31 µM (inactive); with CCRF-CEM it was 16.2 µM (inactive); in the assay on HOP-92, > 100 µM (inactive); in the assay on K562, 15.1 µM (inactive). In addition, the GI50 was 81.3 µM (inactive) with LXFL 529; 16.4 µM (inactive) in the assay with SNB-19; 17.3 µM (inactive) in the assay on SF-268; 36.9 µM (inactive) in the assay with HT-29; 32.4 µM (inactive) with A549.

`CN(Cc1ccccc1)c1nc(=[N+](C)C)ss1`: the GI50 was 44.2 µM (inactive) in the assay with SR; 32.1 µM (inactive) in the assay on MOLT-4; > 100 µM (inactive) with ACHN; 3.55 µM (inactive) in the assay with CCRF-CEM; > 100 µM (inactive) with HOP-92; 23.4 µM (inactive) in the assay with K562. The GI50 in the assay on LXFL 529 was 71.6 µM (inactive); in the assay on SNB-19 it was 86.5 µM (inactive); in the assay on M14, > 100 µM (inactive); with SF-268 it was 49.1 µM (inactive); with SK-MEL-5 it was 58.6 µM (inactive); in the assay with HT-29 it was 74.8 µM (inactive). Further, the GI50 in the assay on EKVX was > 100 µM (inactive); in the assay on A549, 33.2 µM (inactive).

As for `O=C1c2ccncc2C(=O)c2c(O)ccc(O)c21`, the GI50 is 11 µM (inactive) with SR; 5.89 µM (inactive) with MOLT-4; 4.27 µM (inactive) in the assay with ACHN; 4.33 µM (inactive) in the assay on CCRF-CEM; 17.7 µM (inactive) in the assay on HOP-92; 10.1 µM (inactive) in the assay on K562. Besides, the GI50 in the assay on LXFL 529 was 10.3 µM (inactive); with SNB-19 it was 12.4 µM (inactive); with M14, 4.65 µM (inactive); in the assay with SF-268, 11.1 µM (inactive); in the assay with HT-29 it was 3.07 µM (inactive); in the assay with EKVX, 18 µM (inactive). The GI50 in the assay with A549 is 5.48 µM (inactive); in the assay on OVCAR-3, 1.95 µM (inactive).

As for `COc1ccc(C(C#N)NNc2nc(C)cc(O)n2)cc1OC` (stereo not given), the GI50 in the assay with SR, in the assay with MOLT-4, with ACHN, in the assay on CCRF-CEM, in the assay on HOP-92 and with K562 was > 100 µM (inactive) throughout. The GI50 with LXFL 529, with M14, in the assay on SF-268, in the assay on SK-MEL-5, with HT-29 and in the assay on A549 was > 100 µM (inactive) each time. Also, the GI50 in the assay with OVCAR-3 was > 100 µM (inactive).

Regarding `COc1cc(NS(C)(=O)=O)ccc1NCc1c2ccccc2nc2ccccc12`, the GI50 in the assay on SR is 4.71 µM (inactive); in the assay on MOLT-4, 3.27 µM (inactive); with ACHN, 29.4 µM (inactive); with CCRF-CEM, 4.18 µM (inactive); in the assay with HOP-92, 17.3 µM (inactive); in the assay on K562, 7.87 µM (inactive). The GI50 in the assay with LXFL 529 is 29 µM (inactive); in the assay on SNB-19, 51.8 µM (inactive); with M14 it was 52.6 µM (inactive); with SF-268, 32.1 µM (inactive); in the assay with HT-29 it was 31.6 µM (inactive); in the assay with EKVX it was 42.6 µM (inactive). Moreover, the GI50 with A549 is 67 µM (inactive); in the assay on OVCAR-3, 43.5 µM (inactive).

Regarding `O=C1N/C(=C\[N+](=O)[O-])c2ccccc21`, the GI50 with SR, with MOLT-4, in the assay with ACHN, in the assay on CCRF-CEM, in the assay with HOP-92 and in the assay on K562 was > 100 µM (inactive) in each case. Moreover, the GI50 in the assay with LXFL 529, in the assay on SNB-19, in the assay on M14, in the assay with SF-268, in the assay with SK-MEL-5 and with HT-29 was > 100 µM (inactive) each time. Besides, the GI50 in the assay on EKVX, in the assay with A549 and with OVCAR-3 was > 100 µM (inactive) throughout.

Take `O=[N+]([O-])CCc1cccc([N+](=O)[O-])c1`: the GI50 in the assay with SR, in the assay with MOLT-4, with ACHN, in the assay on CCRF-CEM, in the assay with HOP-92 and with K562 was > 100 µM (inactive) throughout. The GI50 in the assay on LXFL 529, in the assay with SNB-19, in the assay on M14, with SF-268, in the assay with SK-MEL-5 and in the assay with HT-29 was > 100 µM (inactive) in each case. The GI50 with EKVX, with A549 and in the assay with OVCAR-3 was > 100 µM (inactive) in each case.

For the compound `CCCN(CCCCC(NC(C)=O)C(=O)NCc1ccccc1)C(=O)NCCCl` (stereo not given), the GI50 with SR, in the assay with MOLT-4, in the assay with ACHN, in the assay with CCRF-CEM, with HOP-92 and in the assay on K562 was > 100 µM (inactive) each time. For the same compound, the GI50 with LXFL 529, in the assay on SNB-19, with M14, with SF-268, in the assay with SK-MEL-5 and with HT-29 was > 100 µM (inactive) in each case. The GI50 with EKVX, in the assay with A549 and in the assay with OVCAR-3 was > 100 µM (inactive) each time.

Consider `COc1cc2cc3c4c(cc(OC)c(OC)c4c2cc1OC)CCN3C(=O)CCC(=O)NCCCN(C)C`, for which the GI50 in the assay on SR is 25.2 µM (inactive); in the assay with MOLT-4 it was 58.9 µM (inactive); in the assay on ACHN, > 100 µM (inactive); with CCRF-CEM it was 29.2 µM (inactive); in the assay with HOP-92, 10 µM (inactive); in the assay on K562 it was 33.6 µM (inactive). Moreover, the GI50 in the assay with LXFL 529 was 61 µM (inactive); in the assay with SNB-19, > 100 µM (inactive); in the assay with M14 it was 17.6 µM (inactive); in the assay on SF-268 it was > 100 µM (inactive); with SK-MEL-5, 14.7 µM (inactive); in the assay on HT-29, 22.6 µM (inactive). The GI50 in the assay with EKVX is 72.1 µM (inactive); in the assay with A549, > 100 µM (inactive); with OVCAR-3 it was > 100 µM (inactive).

Regarding `CC1CCC2(C)C(CC=C(C=O)C2(O)C=O)C12CO2` (stereo not given), the GI50 is 1.71 µM (inactive) with SR; 1.87 µM (inactive) with MOLT-4; 1.76 µM (inactive) in the assay with ACHN; 1.26 µM (inactive) with CCRF-CEM; 2.01 µM (inactive) with HOP-92; 1.7 µM (inactive) with K562. The GI50 is 1.54 µM (inactive) in the assay with LXFL 529; 9.66 µM (inactive) in the assay on SNB-19; 1.36 µM (inactive) in the assay on M14; 4.25 µM (inactive) in the assay on SF-268; 2.55 µM (inactive) with HT-29; 6.98 µM (inactive) in the assay with EKVX. In addition, the figures for the GI50 with A549 and with OVCAR-3 were 10.4 µM (inactive) and 0.481 µM (active), respectively.
